# Laboratory results published in patent US8304384B2, “Caspase-8 and inflammation, infection and wound healing” (Yeda Research and Development Co., Ltd, priority 2006, dated 2012).
# “Also recorded” adds a separate entry of the source.
# What was measured:
# Kupffer cells [1] = experiment: Gadolinium chloride treatment after partial hepatectomy (PHx) in Casp8F/-:Alb-Cre mice; type: in vivo; settings: 1/3 PHx, 10 mg/kg i.p. on days 10 and 12 after PHx
# Protocol: (iii) Partial Hepatectomy and Gadolinium Chloride Administration. Age-matched Casp8^F/−: Alb-Cre mice and Casp8^F/+: Alb-Cre mice were lightly anesthetized with intraperitoneally (i.p.) administered xylazine […] (Chanelle Pharmaceuticals Manufacturing, Loughrea, Galway, Ireland) and ketamine […] (Fort Dodge Animal Health, Fort Dodge, Iowa). It was performed ‘one-third’ (30%) PHx by excising the median lobe of the liver, and ‘two-thirds’ (70%) PHx by excising the median, left, and right upper lobes as described (Higgins et al., 1931 and Greene et al., 2003). Mice were imaged before PHx and afterwards on days 0-56 (every other day during the first week and weekly from then on). On days 10 and 12 after PHx the mice were injected i.p. with gadolinium chloride (Sigma-Aldrich, St. Louis, Mo.) in saline at a dosage of 10 mg/kg.
# (iv) MRI Analysis Technique. Magnetic resonance imaging (MRI) experiments were performed using a horizontal 4.7 T Biospec spectrometer (Bruker Medical, Ettlingen, Germany) with a 4.2-cm birdcage coil. Mice were anesthetized (with pentobarbital 30 mg/kg, i.p.) and placed supine with the liver located at the center of the coil. Liver volume was determined from multi-slice coronal and axial T1-weighted spin echo images (repetition time=400 ms; echo time=18 ms; slice thickness=1 mm). In brief, the liver boundary visualized in each slice was outlined using image-processing software (NIH Image). […] The total liver volume was calculated as the summed area of all slices, multiplied by the slice thickness. For each mouse the liver volume was expressed as a percentage of the preoperative liver volume. […]
# Cells expressing F4/80 were detected similarly, using rat anti-mouse F4/80 antibody (Serotec Oxford, UK), except that for antigen retrieval the paraffin sections were treated for 3 minutes at room temperature with a solution containing 20 mM Tris (pH 7.5), 0.1% trypsin, and 0.1% calcium chloride. The macrophage content of the livers was determined by quantifying the F4/80 positive areas in the slides using the ImageJ 1.37r software.
# Kupffer cells [2] = settings: stated as a known fact, no experiment of the patent described; cited from earlier work
smiles,measurement,setting,value
[Cl][Gd]([Cl])[Cl] [gadolinium chloride],"late (delayed) hepatocyte proliferation, anti-Ki67 stained nuclei in 10 high-power fields","Kupffer cells [1]; 14th day after PHx, 10 mg/kg",practically wiped out the increase in hepatocyte proliferation; also recorded: arrest of the delayed hepatocyte proliferation
same,"liver volume / excessive increase in liver size (hepatomegaly), MRI scans","Kupffer cells [1]; 14th day after PHx, 10 mg/kg",curtailed; also recorded: prevention of hepatomegaly
same,"inflammatory cells (macrophages, anti-F4/80 staining) accumulated in the liver",Kupffer cells [1]; liver examined 14 days after PHx,substantially decreasing the inflammatory cells that had accumulated
same,hepatocyte proliferation facilitated early after PHx,Kupffer cells [2],"does not decrease, but rather is enhanced"
